Data set [1] deals with MCF10A_EGFR/V769_D770insASV cells. Briefly: Growth inhibitory activity against MCF10A_EGFR/V769_D770insASV. In kind it is cell-based. The note with it: Homo sapiens, 72 h; 3 days; read-out: Cell growth inhibitory activity GI 50 value, MCF10A_EGFR/V769_D770insASV cell. Here is the method:
Test Example 7 Measurement of Growth Inhibitory Activity Against EGFR Overexpressing Cell Line and Exon 20 Insertion Mutant EGFR Expressing Cell Line
Growth inhibitory activity against an EGFR overexpressing cell line and an exon 20 insertion mutant EGFR expressing cell line was evaluated using MDA-MB-468 cells (ATCC) as an EGFR overexpressing human breast cancer cell line; NCI-H1975 cells (ATCC) as L858R and T790M mutant EGFR-positive human lung cancer cells; and MCF10A_EGFR cells, MCF10A_EGFR/V769_D770insASV cells, MCF10A_EGFR/D770_N771insSVD cells, and MCF10A_EGFR/H773_V774insNPH cells (Fukushima Medical University) which were cells obtained by introducing the EGFR gene (WT, […], D770_N771insSVD mutant, H773_V774insNPH mutant) into MCF10A cells as human normal mammary gland cells.
The MDA-MB-468 cells were suspended in Leibovitz's L-15 medium containing 10% inactivated fetal bovine serum. The NCI-H1975 cells were suspended in RPMI-1640 medium containing 10% inactivated fetal bovine serum. The MCF10A_EGFR cells, the MCF10A_EGFR/V769_D770insASV cells, the MCF10A_EGFR/D770_N771insSVD cells, or the MCF10A_EGFR/H773_V774insNPH cells were suspended in DMEM/Ham's F-12 medium (containing L-glutamine, phenol red, HEPES, and sodium pyruvate) containing 10 μg/mL insulin, 500 ng/mL hydrocortisone, 5 μmol/L forskolin, and 5% inactivated horse serum in terms of their final concentrations. Each cell suspension was seeded in each well of a 96-well flat-bottom plate such that the number of cells per well was 500, and was then cultured in a carbon dioxide gas-free culture vessel for the MDA-MB-468 cells and in a 5% carbon dioxide gas-containing culture vessel for the other cells at 37° C. for 1 day. The pyrimidine compound of the present invention was prepared at 1 mM in DMSO and then diluted 1/200 with a medium to prepare a 5 μM solution. […]
The cells at the start of the culture (day 0) and after the culture (day 3) were counted using CellTiter-Glo(R) 2.0 Reagent (Promega Corp.) according to the protocol recommended by the manufacturer. […]

The next data set concerns LXF 2478 cells. The data set can be described thus: Growth inhibitory activity against LXF 2478 (V769_D770insASV mutant EGFR-positive). The note with it: Homo sapiens, LXF 2478, 72 h; 3 days; read-out: Cell growth inhibitory activity GI 50 value, LXF 2478 cell. In kind it is cell-based.
The test system of a further data set is NCI-N87-Luc. Briefly: Antitumor effect (in vivo) on direct brain transplantation models of NCI-N87-luc. On the set-up: species or system nude mouse. The note with it: 25 mg/kg/day po once a day, Days 1-21. The source says:
Test Example 11 Antitumor Effect Confirmation Test (In Vivo) on Direct Brain Transplantation Models, into which Luciferase Gene-Introduced HER2 Expressing Cell Line (NCI-N87-luc) is Directly Transplanted
In order to confirm the antitumor effects of a test compound on direct brain transplantation models, NCI-N87-Luc, which was obtained by introducing a Luciferase gene into NCI-N87 that was a human stomach cancer tumor cell line purchased from American Type Culture Collection, was used.
The NCI-N87-Luc cells were re-suspended in PBS in a concentration of 6.25×10^7 cells/mL.
A microdrill was used to drill a hole in the skull, and then, using a needle, a manipulator, and a syringe pump, 4 μL of the cell suspension was transplanted into the brain at a rate of 0.8 μL/min.
As a reference of the amount of brain tumor, approximately 3 weeks after the transplantation, Total Flux (Photon/sec) was measured in all of the survival cases, using IVIS (PerkinElmer, Inc., model: Lumina II). Based on the obtained results, 6 animals were assigned to each group, using the grouping program of MiSTAT (Ver. 2.00).
The test compound was orally administered to the mice once a day, every day, for 21 days from the following day of the grouping (Days 1-21). […]
The value obtained by logarithmic transformation (Log 10) of the total flux on Day 22 in each group was analyzed by a Dunnett's test or a Student-t test. […]

For the compound `C=CC(=O)N1C[C@H](n2c(C#CC)c(C(=O)N[C@H](C)c3ccccc3)c3c(N)ncnc32)C[C@@H]1C` [Example 2, 7-((3R,5S)-1-acryloyl-5-methylpyrrolidin-3-yl)-4-amino-N—((R)-1-phenylethyl)-6-(prop-1-yn-1-yl)-7H-pyrrolo[2,3-d]pyrimidine-5-carboxamide], the GI50 came out at 6.7 nM in data set [1] and 11 nM in the data set with LXF 2478 cells. For the same compound, the “body weight reduction of −20% or more” value with NCI-N87-Luc is “not observed”.
In the same order, the values of `C=CC(=O)N1C[C@H](n2c(C#CC3CC3)c(C(=O)N[C@H](C)c3ccccc3)c3c(N)ncnc32)C[C@@H]1C` [Example 11, 7-((3R,5S)-1-acryloyl-5-methylpyrrolidin-3-yl)-4-amino-6-(cyclopropylethynyl)-N—((R)-1-phenylethyl)-7H-pyrrolo[2,3-d]pyrimidine-5-carboxamide] are 7.3 nM, 19 nM and “not observed”.
Consider `C=CC(=O)N1C[C@H](n2c(C#CC(C)(C)C)c(C(=O)N[C@H](C)c3ccccc3)c3c(N)ncnc32)C[C@@H]1C` [Example 12, 7-((3R,5S)-1-acryloyl-5-methylpyrrolidin-3-yl)-4-amino-6-(3,3-dimethylbut-1-yn-1-yl)-N—((R)-1-phenylethyl)-7H-pyrrolo[2,3-d]pyrimidine-5-carboxamide], for which the GI50 is 24 nM in data set [1] and 48 nM in the data set with LXF 2478 cells.

For the origin of these results see patent US20230255972A1, “PYRIMIDINE COMPOUND-CONTAINING COMBINATION TO BE USED IN TUMOR TREATMENT” (TAIHO PHARMACEUTICAL CO., LTD., priority 2020, published 2023).
